Source: US4022909A, “Method of inhibiting the growth of bacteria using quaternary ammonium compounds” (IMC Chemical Group, Inc., priority 1976, dated 1977)

Columns and labels:
[1] = system: Streptococcus hemolyticus; assay: streak plate test, Inhibition Endpoint, Streptococcus hemolyticus; assay type: cell-based; conditions: Streptococcus pyogenes, Gram +, lower figure allows growth, higher figure inhibits growth
[2] = system: Staphylococcus aureus; assay: streak plate test, Inhibition Endpoint, Staphylococcus aureus; assay type: cell-based; conditions: Gram +, lower figure allows growth, higher figure inhibits growth
[3] = system: fungi; assay: antifungal activity by the streak plate test (in words); assay type: cell-based
Method: (§1) The compound was tested for antibacterial and antifungal activity by the streak plate test, which is known in the art. The test substance was incorporated into several portions of an agar medium at several known concentrations and the mixtures were placed in Petri dishes. Then streaks of test organisms were applied to the surface of the medium, the dishes were incubated under growth-promoting conditions, and then examined for growth of organisms. The results are reported as the Inhibition End-Point Range, the lower figure signifying a concentration that allows growth and the higher figure being a concentration that inhibits growth.

[4] = system: Pseudomonas auriginosa; assay: streak plate test, Inhibition Endpoint, Pseudomonas auriginosa; assay type: cell-based; conditions: Gram -, lower figure allows growth, higher figure inhibits growth
[5] = system: Escherichia coli; assay: streak plate test, Inhibition Endpoint, Escherichia coli; assay type: cell-based; conditions: Gram -, lower figure allows growth, higher figure inhibits growth
[6] = system: Streptococcus fecalis; assay: streak plate test, Inhibition Endpoint, Streptococcus fecalis; assay type: cell-based; conditions: Gram +, lower figure allows growth, higher figure inhibits growth
[7] = system: Pasteurella pseudotuberculosis; assay: microbe, parasite or virus in culture; assay type: cell-based; conditions: Yersinia pseudotuberculosis, read-out: Inhibition Endpoint
[8] = acute oral toxicity in mice; conditions: mouse, in vivo, po
[9] = system: mice; assay: acute oral toxicity in mice; conditions: oral administration, mice
[10] = system: Mycobacterium ranae; assay: streak plate test, Inhibition Endpoint, Mycobacterium ranae; assay type: cell-based; conditions: Acid fast, lower figure allows growth, higher figure inhibits growth
[11] = system: Shigella dysenteriae; assay: streak plate test, Inhibition Endpoint, Shigella dysenteriae; assay type: cell-based; conditions: read-out: Inhibition Endpoint
[12] = system: bacteria; assay: antibacterial activity by the streak plate test (in words); assay type: cell-based
Method: as §1

[13] = system: Micrococcus flavus; assay: streak plate test, Inhibition Endpoint, Micrococcus flavus; assay type: cell-based; conditions: Gram +, lower figure allows growth, higher figure inhibits growth
[14] = system: Gaffkya tetragena; assay: streak plate test, Inhibition Endpoint, Gaffkya tetragena; assay type: cell-based; conditions: Gram +, lower figure allows growth, higher figure inhibits growth

Row | SMILES | MIC [1] [µg/mL] | MIC [2] [µg/mL] | activity against fungi [3] | MIC [4] [µg/mL] | MIC [5] [µg/mL] | MIC [6] [µg/mL] | MIC [7] [µg/mL] | LD50 [8] [mg/kg] | LD0 [9] [mg/kg] | LD100 [9] [mg/kg] | MIC [10] [µg/mL] | MIC [11] [µg/mL] | antibacterial activity [12] | MIC [13] [µg/mL] | MIC [14] [µg/mL]
1 | CCCCCCCCCCCCCCCC(=O)OCC(C)(C)[N+](C)(C)C.[I-] [Example 3, (2-palmitoyloxy-1,1-dimethylethyl)-trimethylammonium iodide] | 1 to 5 | 1 to 5 | only slightly active against fungi | > 1000 | > 1000 | 1 to 5 | 100 to 500 | 1490 | 800 | 3200 | 50 to 100 | 50 to 100 | – | – | –
2 | CCCCCCCCCCCC(=O)OCC(C)(C)[N+](C)(C)C.[I-] [Example 2, (2-lauroyloxy-1,1-dimethylethyl)-trimethylammonium iodide] | 5 to 10 | 1 to 5 | only slight activity against fungi | 500 to 1000 | 100 to 500 | 5 to 10 | 5 to 10 | 900 | 500 | 1700 | 1 to 50 | 10 to 50 | – | – | –
3 | CCCCCCCCCCCCCC(=O)OCC(C)(C)[N+](C)(C)C.[I-] [Example 1, (2-myristoyloxy-1,1-dimethylethyl)-trimethylammonium iodide] | 1 to 5 | 1 to 5 | – | > 1000 | 100 to 500 | 1 to 5 | 1 to 5 | 1000 | 600 | 2000 | 1 to 5 | 5 to 10 | powerful antibacterial activity | 0.1 to 0.5 | 1 to 5
4 | CCCCCCCC(=O)OCC(C)(C)[N+](C)(C)C.[I-] [Example 4, (2-octanoyloxy-1,1-dimethylethyl)trimethylammonium iodide] | > 1000 | 100 to 500 | – | > 1000 | 500 to 1000 | > 1000 | 100 to 500 | 1160 | 800 | 1700 | 100 to 500 | > 1000 | – | – | –
